Reference: US20040171073A1, “Compounds for modulation of cholesterol transport” (Massachusetts Institute of Technology, priority 2002, published 2004)

Target: T1, murine SR-BI (Mus musculus, UniProt Q61009)
T1 construct: expressed in transfected cells; host or cells: ldlA-7 (LDL receptor deficient Chinese hamster ovary cells)
T1 sequence (Q61009 1-509): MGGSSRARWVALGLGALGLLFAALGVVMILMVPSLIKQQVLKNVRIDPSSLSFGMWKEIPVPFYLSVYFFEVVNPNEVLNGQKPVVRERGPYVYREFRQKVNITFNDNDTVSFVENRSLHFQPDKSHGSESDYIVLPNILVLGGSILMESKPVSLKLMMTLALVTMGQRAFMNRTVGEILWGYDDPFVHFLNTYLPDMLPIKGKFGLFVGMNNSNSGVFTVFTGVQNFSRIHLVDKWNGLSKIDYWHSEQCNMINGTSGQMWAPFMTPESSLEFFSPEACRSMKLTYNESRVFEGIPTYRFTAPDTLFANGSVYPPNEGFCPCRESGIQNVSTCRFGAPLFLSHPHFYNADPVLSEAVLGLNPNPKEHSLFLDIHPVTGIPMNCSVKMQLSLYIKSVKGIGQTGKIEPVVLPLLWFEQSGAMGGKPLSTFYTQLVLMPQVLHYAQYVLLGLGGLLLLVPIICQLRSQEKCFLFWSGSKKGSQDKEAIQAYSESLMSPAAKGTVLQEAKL
Experiment: Uptake of DiI from DiI-HDL by ldlA[mSR-BI] cells (high throughput screen and concentration dependence)
Assay type: cell-based

[1] = DiI uptake from DiI-HDL, compounds at nominal 10 micromolar, ldlA[mSR-BI] cells

ENDOHDL Test 1	ENDOHDL Test 2	ENDOHDL Test 1 [1]	ENDOHDL Test 2 [1]	SMILES
		0.61	0.56	C=CC/C=C/c1c(NC(=O)c2ccccc2)sc2c1CCCC2 [MIT 9952-294]
0.48	0.52			O=S(=O)([O-])C(F)(F)F.O=[N+]([O-])c1ccc([I+]c2ccc(F)cc2)cc1 [MIT 9952-241]
0.68	0.66			CCc1nnc(N2CCN(c3ncnc4c3cnn4-c3ccccc3)CC2)s1 [MIT 9952-248]
		0.6	0.64	COc1cccc(C(=O)Nc2nc3ccc(Cl)cc3s2)c1 [MIT 9952-289]
0.64	0.57			CCOC(=O)c1c(NC(=O)c2ccccc2C)sc2c1CCCC2 [MIT 9952-223]
0.56	0.54			Brc1ccc2c(c1)OCCSCCOCCOCCSCCO2 [MIT 9952-244]
0.73	0.68			Cc1cc(C)c(NC(=O)C2CCCN2N)c(C)c1 (centres unmarked) [MIT 9952-276]
		0.64	0.58	CCN1/C(=C\C(=O)c2ccc(C)cc2)Sc2ccccc21 [MIT 9952-295]
		0.46	0.63	Cc1ccsc1/C=N/NC(=O)c1cccc([N+](=O)[O-])c1 [MIT 9952-323]
0.61	0.56			O=C(Nc1nc(-c2ccccc2)cs1)Nc1ccc(Cl)cc1Cl [MIT 9952-232]
0.45	0.56			CC(=O)C1=C(C)NC(=S)NC1c1ccco1 (centres unmarked) [MIT 9952-264]
		0.64	0.63	Cc1cccc(C(=O)Nc2cccc(Cl)c2)c1 [MIT 9952-279]
0.58	0.39			CN(N)c1nc(-c2ccccc2)cc(-c2ccccc2)n1 [MIT 9952-252]
0.61	0.6			CCOc1ccc(NC(=O)/C=C/c2cccc([N+](=O)[O-])c2)cc1 [MIT 9952-255]
0.64	0.71			COc1cccc(/C=N/Nc2ccc([N+](=O)[O-])cc2)c1 [MIT 9952-240]
0.6	0.5			Cc1ccc(NC(=O)c2ccc([N+](=O)[O-])c(C)c2)cc1Cl [MIT 9952-224]
0.61	0.51			COc1ccc(N/N=C2\C(=O)ON=C2c2ccc(OC)cc2)cc1 [MIT 9952-272]
		0.67	0.6	Clc1ccc(N2CCC/C2=N\c2c3c(nc4ccccc24)N(c2ccccc2)CC3)cc1Cl [MIT 9952-305]
0.61	0.51			Nc1cc2cccnc2c2ncccc12 [MIT 9952-230]
0.46	0.59			O=[N+]([O-])c1cccc(/C=N\Nc2nc(Nc3ccc(Cl)cc3)nc(N3CCOCC3)n2)c1 [MIT 9952-209]
0.59	0.54			C/C(CS(=O)(=O)c1ccccc1)=N/NC(N)=S [MIT 9952-271]
0.51	0.48			CC(=O)OCc1c(C)cc(C)c(/C=N/Nc2ccc([N+](=O)[O-])cc2)c1C [MIT 9952-273]
		0.53	0.48	Cc1cc(C)c(CO)c(C)c1/C=N/Nc1ccc([N+](=O)[O-])cc1 [MIT 9952-283]
		0.75	0.67	O=C(Nc1ccc2c(c1)OCO2)c1ccc2ccccc2c1 [MIT 9952-280]
1.13	1.25			CCS(=O)(=O)C(=C(Nc1ccc(OC)cc1)Nc1ccc(OC)cc1)S(=O)(=O)CC [MIT 9952-220]
		0.55	0.54	O=C(CSC1=NCCN1)Nc1ccccc1 [MIT 9952-314]
0.74	0.66			COc1ccccc1NC(=O)c1ccc(OC)c(OC)c1 [MIT 9952-269]
1.26	1.26			C/C(=N\NC(=O)c1ccccc1)c1ccccc1C(=O)O [MIT 9952-242]

The remaining lines, values behind:

SMILES	ENDOHDL Test 1	ENDOHDL Test 2	ENDOHDL Test 1 [1]	ENDOHDL Test 2 [1]
O=C(Oc1ccc2c(=O)c(Oc3ccccc3)coc2c1)C1CCCN1C(=O)OCc1ccccc1 (centres unmarked) [MIT 9952-145]	1.28	1.34		
COc1ccc2[nH]cc(CCN3CCOC3=O)c2c1 [MIT 9952-205]	1.08	1.0		
C/C(=N\NC(=O)c1ccc(-c2ccccc2)cc1)c1cccc(N)c1 [MIT 9952-164]	0.6	0.61		
O=C(Nc1ccc(Cl)c([N+](=O)[O-])c1)c1cccc(C(=O)Nc2ccc(Cl)c([N+](=O)[O-])c2)c1 [MIT 9952-219]	0.55	0.55		
O=C(C[n+]1ccc(CCSC2Cc3cccc4cccc2c34)cc1)c1ccc([N+](=O)[O-])cc1 (centres unmarked) [MIT 9952-75]	0.64	0.71		
CC1=C(C(=O)OCc2ccccc2)C(c2ccc(N(C)C)cc2)NC(=O)N1 (centres unmarked) [MIT 9952-163]	0.6	0.69		
Cc1ccc(C(C)C)cc1OCC(=O)N/N=C\c1cc([N+](=O)[O-])ccc1O [MIT 9952-154]	0.47	0.45		
COC(=O)Cn1c2c(c3cc(C)ccc31)CCCC2NC(C)c1ccccc1 (centres unmarked) [MIT 9952-180]	0.43	0.45		
COc1ccc([N+](=O)[O-])cc1NC(=S)NC(NC(=O)c1ccccc1Br)C(Cl)(Cl)Cl (centres unmarked) [MIT 9952-125]	0.63	0.66		
CCCCCCC1CCC/C1=N\NC(N)=S (centres unmarked) [MIT 9952-185]	0.53	0.46		
Nc1ccc(C(=O)Nc2ccc(C3Nc4ccc(SC(=O)c5ccc(N)cc5)c(Cl)c4S3)cc2)cc1 (centres unmarked) [MIT 9952-144]	0.56	0.56		
COC(=O)Nc1cc([N+](=O)[O-])cc([N+](=O)[O-])c1Br [MIT 9952-79]	0.61	0.63		
O=C(COc1ccc(Cl)cc1)N/N=C/c1ccc(Cl)cc1 [MIT 9952-31]	1.33	1.17		
O=C(Nc1ccc(-c2nc3cc(NC(=O)c4ccccc4[N+](=O)[O-])ccc3o2)cc1)c1ccccc1[N+](=O)[O-] [MIT 9952-234]	0.58	0.54		
O=C1CC(N2CCOCC2)C(=O)N1c1ccc(Br)cc1 (centres unmarked) [MIT 9952-3]	1.32	1.17		
CC(F)(F)c1cccc(NC(=O)c2sc(-c3ccccc3)nc2-c2ccc([N+](=O)[O-])cc2)c1 [MIT 9952-166]	0.56	0.67		
O=C(Nc1ccc(-c2nc3cc(NC(=O)c4ccccc4[N+](=O)[O-])ccc3o2)cc1)c1ccccc1[N+](=O)[O-] [MIT 9952-339]			0.58	0.54

SMILES	ENDOHDL Test 1	ENDOHDL Test 2	ENDOHDL Test 1 [1]	ENDOHDL Test 2 [1]
O=C(CC1=CCCCC1)Nc1cc([N+](=O)[O-])ccc1Cl [MIT 9952-46]	1.32	1.18		
COc1ccc(/C(C)=N/NC(=O)C2CC2(c2ccccc2)c2ccccc2)c(OC)c1 (centres unmarked) [MIT 9952-93]	0.66	0.71		
O=C(O)CCNC(=O)c1ccccc1 [MIT 9952-94]	1.21	1.22		
CCn1c(COC)c(-c2ccccc2)c2cc([N+](=O)[O-])ccc21 [MIT 9952-143]	0.66	0.65		
Cc1cc(C(=O)N/C=C\c2c(Cl)ccc3ccccc23)[nH]n1 [MIT 9952-38]	0.34	0.52		
O=C(Cl)CCNC(=O)c1ccccc1 [MIT 9952-18]	1.21	1.22		
Cc1cc(C)c(/C=N/N=C/c2c(C)cc(C)cc2C)c(C)c1 [MIT 9952-69]	1.18	1.32		
Cc1cccc(N2C(=O)CN(C3CCOCC3)C2=O)c1 [MIT 9952-2]	1.34	1.2		
COc1ccc2nc(C(=O)[O-])sc2c1.[Na+] [MIT 9952-14]	1.24	1.21		
NC(=O)N/N=C/c1ccc(-c2ccc([N+](=O)[O-])cc2)o1 [MIT 9952-126]	0.55	0.53		
COC(=O)/C=C1/Nc2ccccc2OC1=O [MIT 9952-151]	1.22	1.36		
CC1CC2(C)CC(C(=O)O2)C1C(=O)OCCOc1ccccc1 (centres unmarked) [MIT 9952-109]	1.19	1.75		
Cc1ccc(NC(=S)NC(NC(=O)c2ccccc2Cl)C(Cl)(Cl)Cl)cc1 (centres unmarked) [MIT 9952-201]	0.69	0.67		
CO/C(=N\C(NC(=S)Nc1ccccc1)C(Cl)(Cl)Cl)c1ccc(C)cc1 (centres unmarked) [MIT 9952-203]	0.73	0.7		
CC(C)(C)c1ccc(C(=O)Nc2ccccc2C(=O)O)cc1 [MIT 9952-48]	0.68	0.49		
Cc1cc(C(=O)N/N=C\c2c(O)ccc3ccccc23)[nH]n1 [MIT 9952-150]	0.34	0.52		
